Source: patent US9278958B2, “Anti-cancer compounds” (KATHOLIEKE UNIVERSITEIT LEUVEN, priority 2012, dated 2016)
Where two headings read alike, the source gives them in different places.

Key:
MT-2 cells = assay: Cytostatic assay, MT-2; format: cell-based; conditions: Homo sapiens, MT2; Table 2
Summary of the method: (§1)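 Incubation of 5-7.5×10^4 cells per well with compound ran for 48–96 h (depending on the line) at 37° C; cells were then counted with a Coulter instrument.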

[1] = system: HeLa cervix carcinoma cells; assay: Cytostatic assay, HeLa; format: cell-based, human; conditions: Homo sapiens; Table 3; read-out: Cytostatic activity (μM) Hela
Summary of the method: as §1

HepG2C3A hepatoma cells = assay: Cytostatic assay, HepG2C3A; format: cell-based; conditions: Homo sapiens, HepG2/C3A; Table 4
Summary of the method: as §1

[2] = system: RNA synthesis in CEM cells; assay: Antimetabolic activity assay, [5-3H]uridine incorporation (RNA synthesis), CEM; format: cell-based; conditions: Homo sapiens, CCRF-CEM, incorporation into TCA-insoluble material
Summary of the method: (§2)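 Each well held 10^5 CEM cells, 1 μCi of one labelled precursor and compound over a 5-fold dilution range. Following a 20 hrs incubation at 37° C, acid-insoluble radioactivity retained on glass fiber filters was determined.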

[3] = system: Daudi, human B-lymphoma cells; assay: Cytostatic assay, Daudi; format: cell-based; conditions: Table 2
Experimental: (§3) To each well of a 96-well microtiter plate were added 5-7.5×10^4 cells and a given amount of the test compound. The cells were allowed to proliferate for 48 h to 96 h (depending on the nature of the cell line) at 37° C. in a humidified CO2-controlled atmosphere. At the end of the incubation period, the cells were counted in a Coulter Counter (Coulter Electronics Ltd, Harpenden Herts, United Kingdom).

[4] = system: Caki-2 kidney carcinoma cells; assay: Cytostatic assay, Caki-2; format: cell-based; conditions: Homo sapiens, Table 3
Summary of the method: as §1

[5] = system: protein synthesis in CEM cells; assay: Antimetabolic activity assay, [4,5-3H]leucine incorporation (protein synthesis), CEM; format: cell-based; conditions: Homo sapiens, CCRF-CEM, incorporation into TCA-insoluble material
Summary of the method: as §2

[6] = system: PC-3 (UZ) prostate cancer cells; assay: Cytostatic assay, PC-3 (UZ); format: cell-based; conditions: Table 4
Summary of the method: as §1

[7] = system: 22Rv1 (UZ) prostate cancer cells; assay: Cytostatic assay, 22Rv1 (UZ); format: cell-based; conditions: Homo sapiens, Table 4
Summary of the method: as §1

[8] = system: LNCaP (UZ) prostate cancer cells; assay: Cytostatic assay, LNCaP (UZ); format: cell-based; conditions: Homo sapiens, Table 4
Summary of the method: as §1

Huh-7 hepatoma cells = assay: Cytostatic assay, Huh-7; format: cell-based; conditions: Homo sapiens, Table 4
Summary of the method: as §1

[9] = system: HL60, human leukemia cells; assay: Cytostatic assay, HL-60; format: cell-based; conditions: Table 2
Summary of the method: as §1

[10] = system: HEL embryonic lung fibroblast cells; assay: Cytostatic assay, HEL; format: cell-based; conditions: Homo sapiens, Table 3
Summary of the method: as §1

[11] = system: FM3A mammary carcinoma cells; assay: Cytostatic assay, FM3A; format: cell-based, murine; conditions: Mus musculus, Table 3
Summary of the method: as §1

BPH-1 (UZ) = assay: Cytostatic assay, BPH-1 (UZ); format: cell-based; conditions: Homo sapiens, Table 4
Summary of the method: as §1

C8166 cells = assay: Cytostatic assay, C8166; format: cell-based; conditions: Homo sapiens, Table 2
Summary of the method: as §1

[12] = system: PNT1A (UZ) prostate cells; assay: Cytostatic assay, PNT1A (UZ); format: cell-based; conditions: Homo sapiens, Table 4
Summary of the method: as §1

[13] = system: protein synthesis in Raji cells; assay: Antimetabolic activity assay, [4,5-3H]leucine incorporation (protein synthesis), Raji; format: cell-based; conditions: Homo sapiens, incorporation into TCA-insoluble material
Molt4/C8 cells = assay: Cytostatic assay, Molt4/C8; format: cell-based; conditions: Table 2
Summary of the method: as §1

[14] = system: Caki-1 kidney carcinoma cells; assay: Cytostatic assay, Caki-1; format: cell-based; conditions: Homo sapiens, Table 3
Summary of the method: as §1

[15] = system: 293T embryonic kidney cells; assay: Cytostatic assay, 293T; format: cell-based; conditions: Homo sapiens, HEK-293T; Table 3
Summary of the method: as §1

[16] = system: Raji, human B-lymphoma cells; assay: Cytostatic assay, Raji; format: cell-based; conditions: Table 2
Summary of the method: as §1

[17] = system: U937, human monocytic cells; assay: Cytostatic assay, U937; format: cell-based; conditions: U-937, Table 2
Summary of the method: as §1

[18] = system: U87 CD4+/CXCR4+/CCR5+ glioma cells; assay: Cytostatic assay, U87 CD4+/CXCR4+/CCR5+; format: cell-based; conditions: Homo sapiens, Glioma cell; Table 3
Experimental: as §3

[19] = system: BAEC aortic endothelial cells; assay: Cytostatic assay, BAEC; format: cell-based, bovine; conditions: Bos taurus, Table 3
Summary of the method: as §1

[20] = system: DU145 (UZ) prostate cancer cells; assay: Cytostatic assay, DU145 (UZ); format: cell-based; conditions: Homo sapiens, DU-145; Table 4
Summary of the method: as §1

[21] = system: MCF-7 mammary carcinoma cells; assay: Cytostatic assay, MCF-7; format: cell-based; conditions: Homo sapiens, MCF7; Table 3
Summary of the method: as §1

[22] = system: THP-1, human monocytic cells; assay: Cytostatic assay, THP-1; format: cell-based; conditions: Table 2
Summary of the method: as §1

[23] = system: DNA synthesis in Raji cells; assay: Antimetabolic activity assay, [CH3-3H]dThd incorporation (DNA synthesis), Raji; format: cell-based; conditions: Homo sapiens, incorporation into TCA-insoluble material
MT-4 cells = assay: Cytostatic assay, MT-4; format: cell-based; conditions: Homo sapiens, MT4; Table 2
Summary of the method: as §1

PLC/PRF/5 hepatoma cells = assay: Cytostatic assay, PLC/PRF/5; format: cell-based; conditions: Homo sapiens, Table 4
Summary of the method: as §1

[24] = system: OST TK- osteosarcoma cells; assay: Cytostatic assay, OST TK-; format: cell-based; conditions: Homo sapiens; Table 3
Summary of the method: as §1

[25] = system: HT29 colorectal carcinoma cells; assay: Cytostatic assay, HT29; format: cell-based; conditions: Homo sapiens, HT-29; Table 3
Summary of the method: as §1

L1210 cells = assay: Cytostatic assay, L1210; format: cell-based; conditions: Mus musculus, Table 2
Summary of the method: as §1

[26] = system: PC3 (rega) prostate cancer cells; assay: Cytostatic assay, PC3 (rega); format: cell-based; conditions: Table 4
Summary of the method: as §1

[27] = system: DNA synthesis in CEM cells; assay: Antimetabolic activity assay, [CH3-3H]dThd incorporation (DNA synthesis), CEM; format: cell-based; conditions: Homo sapiens, CCRF-CEM, incorporation into TCA-insoluble material
Summary of the method: as §2

CEM cells = assay: Cytostatic assay, CEM; format: cell-based; conditions: Homo sapiens, CCRF-CEM
Summary of the method: as §1

[28] = system: HOS CD4+ osteosarcoma cells; assay: Cytostatic assay, HOS CD4+; format: cell-based; conditions: Homo sapiens; Table 3
Experimental: as §3

U87 glioma cells = assay: Cytostatic assay, U87; format: cell-based; conditions: Homo sapiens, U-87 MG; Table 3
Summary of the method: as §1

[29] = system: RNA synthesis in Raji cells; assay: Antimetabolic activity assay, [5-3H]uridine incorporation (RNA synthesis), Raji; format: cell-based; conditions: Homo sapiens, incorporation into TCA-insoluble material
Sup T1 cells = assay: Cytostatic assay, Sup T1; format: cell-based; conditions: Homo sapiens, Table 2, read-out: Cytostatic activity (μM) Sup T 1
Summary of the method: as §1

HUT-78 cells = assay: Cytostatic assay, HUT-78; format: cell-based; conditions: Homo sapiens, HuT78; Table 2
Summary of the method: as §1

[30] = system: broad variety of tumor cell lines; assay: Cytostatic assays, summary over the panel of cell lines (Tables 2-4); format: cell-based
Experimental: as §3

For `CCOC(=O)c1cc(C#Cc2ccc(OC)cc2)sc1N` [TR530, 2-Amino-5-(4-methoxy-phenylethynyl)-thiophene-3-carboxylic acid ethyl ester], the IC50 (MT-2 cells) was 1.5 ± 0.21 µM, the IC50 [1] was 42 ± 5.5 µM and the IC50 (HepG2C3A hepatoma cells) was 12 ± 2.1 µM. The IC50 [2] was 0.66 ± 0.01 µM, the IC50 [3] was 43 ± 2.8 µM and the IC50 [4] was 88 ± 17 µM. For the same compound, the IC50 [5] was 0.2 ± 0.07 µM, the IC50 [6] was 0.96 ± 0.2 µM and the IC50 [7] was 6.3 ± 2.5 µM. The IC50 [8] was 0.26 ± 0.081 µM, the IC50 (Huh-7 hepatoma cells) was 1.5 ± 0.28 µM and the IC50 [9] was 6.2 ± 8.5 µM. The IC50 [10] was 35 ± 13 µM, the IC50 [11] was 40 ± 3.5 µM and the IC50 (BPH-1 (UZ)) was 41 ± 1.4 µM. For the same compound, the IC50 (C8166 cells) was 2.8 ± 0.14 µM, the IC50 [12] was 38 ± 7.8 µM and the IC50 [13] was at least 100 µM. It also gave an IC50 (Molt4/C8 cells) of 0.22 µM, an IC50 [14] of 5.3 ± 2.2 µM and an IC50 [15] of 37 ± 0.71 µM. It also gave an IC50 [16] of 48 ± 1.4 µM, an IC50 [17] of 41 ± 1.4 µM and an IC50 [18] of 28 ± 3.5 µM. The IC50 [19] was 16 ± 16 µM, the IC50 [20] was 9.3 ± 8.4 µM and the IC50 [21] was 42 ± 0.71 µM. The IC50 [22] was 44 ± 1.4 µM, the IC50 [23] was at least 100 µM and the IC50 (MT-4 cells) was 22 ± 15 µM. The IC50 (PLC/PRF/5 hepatoma cells) was 41 ± 6.4 µM, the IC50 [24] was 3.8 ± 1.7 µM and the IC50 [25] was 48 ± 23 µM. For the same compound, the IC50 (L1210 cells) was 40 ± 2 µM, the IC50 [26] was 0.29 ± 0.14 µM and the IC50 [27] was 2.3 ± 1 µM. It also gave an IC50 (CEM cells; Table 1a, read-out: IC50 μM (CEM)) of 0.7 µM, an IC50 (CEM cells; Table 2, read-out: Cytostatic activity (μM) CEM) of 0.73 ± 0.62 µM and an IC50 [28] of 35 ± 7.1 µM. The IC50 (U87 glioma cells) was 37 ± 2.8 µM, the IC50 [29] was 60 ± 57 µM and the IC50 (Sup T1 cells) was 1.5 ± 0.14 µM. It also gave an IC50 (HUT-78 cells) of 44 ± 6.4 µM, an IC50 ([30]; Homo sapiens, HuT78, range for the seven compounds, MT-4 and HUT-78 cells, read-out: IC50 range, cytostatic activity against MT-4 and HUT-78 cells) of 8.5 to 60 µM and an IC50 ([30]; range for the seven compounds against the 5 tumor cell lines, read-out: IC50 range, cytostatic activity against CEM, Molt4/C8, Sup T1, MT-2 and C8166 cells) of 0.22 to 3.4 µM.
